Literature values in article PMC8198792, “Prediction of Anticancer Peptides with High Efficacy and Low Toxicity by Hybrid Model Based on 3D Structure of Peptides” (International Journal of Molecular Sciences, 2021).
Read-outs that look alike come from different tables or passages of the source.

Test system: cancer cell lines
Set-up: method as in 6 sources, ref CancerPPD [45] and SATPdb ||| ref CancerPPD/SATPdb ||| ref CancerPPD, SATPdb, Swissprot (PDB) ||| ref CancerPPD/SATPdb/Swissprot(PDB) ||| ref CancerPPD / SATPdb ||| ...
Settings: cited from earlier work
From the text: Supplement ijms-22-05630-s001.zip/ACPs(seguence).xlsx, sheet "D1" | column: Activity || Supplement ijms-22-05630-s001.zip/ACPs(seguence).xlsx, sheet "D2" | column: Activity || Supplement ijms-22-05630-s001.zip/ACPs(seguence).xlsx, sheet "D3" | column: Activity || (+ 2 further places)

[1] = ACPs dataset D3 (sheet "D3"), label 1 = ACP, 0 = non-ACP, ref CancerPPD/SATPdb
[2] = ACPs dataset D4 (sheet "D4"), label 1 = ACP, 0 = non-ACP, ref CancerPPD / SATPdb
[3] = ACPs dataset D5, sheet "D5", label 1 = ACP, 0 = non-ACP, ref CancerPPD [45] and SATPdb
[4] = ACPs dataset D1, 1 = ACP (positive), 0 = non-ACP (negative), label taken from databases, ref CancerPPD [45] and SATPdb
[5] = ACPs dataset D4 (sheet "D4"), label 1 = ACP (CancerPPD ID), 0 = non-ACP (non-anticancer AMP, SATPdb ID), ref CancerPPD [45] and SATPdb
[6] = ACPs dataset D1, label 1 = ACP, 0 = non-ACP (non-anticancer AMPs from SATPdb), ref CancerPPD/SATPdb
[7] = ACPs dataset D4 (sheet "D4"), label 1 = ACP, experimentally validated ACPs, ref CancerPPD [45] and SATPdb
[8] = ACPs dataset D5 (sheet "D5"), label 1 = ACP (positive set), sequences with CancerPPD/SATPdb ID, ref CancerPPD, SATPdb
[9] = ACPs dataset sheet D2, 1 = ACP (CancerPPD/SATPdb ID), 0 = non-ACP (Swissprot/PDB ID), ref CancerPPD, SATPdb, Swissprot (PDB)
[10] = ACPs dataset D5 (sheet "D5"), label 1 = ACP (positive set), 0 = non-ACP (negative set), ref CancerPPD [45] and SATPdb
[11] = ACPs dataset D2 (supplement ACPs(seguence).xlsx, sheet D2), dataset label 1/0 (ACP / non-ACP), entries identified by Swissprot(PDB ID), ref CancerPPD/SATPdb/Swissprot(PDB)
[12] = ACPs dataset D3 (supplement sheet "D3"), 1 = ACP, 0 = non-ACP, ref CancerPPD [45] and SATPdb

Row | Substance | Activity [4] | Activity [5] | Activity [7] | Activity [8] | Activity [9] | other results
1 | VOLKfPVOLfP [satpdb14846] |  |  |  |  |  | Activity [1]: 0; Activity [2]: 0; Activity [3]: 0
2 | GIFSLFKAGAKFFGKHLLKQAGKAGAEHLACKATNQC [satpdb10483] | 0 | 0 |  |  |  | 
3 | FKIPPIVKDTLKKFFKGGIAGVMGQ [satpdb10550] | 0 | 0 |  |  |  | 
4 | ACYCRIPACLAGERRYGTCFYMGRVWAFCC [satpdb12594] |  | 0 |  |  |  | Activity [6]: 0
5 | TEENRELVSELKRP [satpdb12614] | 1 |  | 1 | 1 | 1 | 
6 | VAKCTEESGGKYFVFCCYKPTRICYMNEQKCESTCIGK [satpdb10361] | 0 | 0 |  |  |  | 
7 | RRWCFRVCYR GFCYRKCR [1RKK NMR - A 1-18] |  |  |  |  | 0 | Activity [10]: 0
8 | GPSQPTYPGDDAPVEDLIRFYNDLQQYLNVVTRHRY [1PPT X-ray 1.37 A 1-36] |  |  |  |  |  | Activity [11]: 0; Activity [10]: 0
9 | GILGKLWEGFKSIV [satpdb13792] |  |  |  |  |  | Activity [1]: 0; Activity [2]: 0; Activity [3]: 0
10 | GLFDIVKKIAGHIVSSI [compound 1297] |  | 1 |  |  |  | Activity [12]: 1; Activity [10]: 1
11 | LCYARRRFAVCV [satpdb13142] |  |  |  |  |  | Activity [6]: 0; Activity [2]: 0
12 | PLLQATLGGGS [compound 3726] | 1 |  | 1 | 1 | 1 | 
13 | VGSGGCMFGNGK [satpdb10083] | 1 |  | 1 | 1 | 1 | 
14 | GVDITVIRPNH [satpdb22601] | 1 |  | 1 | 1 | 1 | 
15 | KNWKAILKHIIK [satpdb13480] |  |  |  |  |  | Activity [1]: 0; Activity [2]: 0; Activity [3]: 0
16 | ALLGDFFRKSKEKIGKEFKRIVQRIKDFLRNLVPRTES [satpdb12863] |  |  |  |  |  | Activity [6]: 0; Activity [2]: 0
17 | KAAKKAWKWAKKAAKWAKKAA [compound 4479] | 1 |  | 1 | 1 | 1 | 
18 | GKWMSLLKKILK [compound 3651] |  | 1 |  |  |  | Activity [12]: 1; Activity [10]: 1
19 | GKWMKLLKHILK [compound 3652] |  | 1 |  |  |  | Activity [12]: 1; Activity [10]: 1
20 | GLLPCAESCVYIPCLTTVIGCSCKSKVCYKN [compound 4423] | 1 |  | 1 | 1 | 1 | 
21 | GIIKKIIKKIIKKI [compound 2840] |  | 1 |  |  |  | Activity [12]: 1; Activity [10]: 1

Row | Substance | Activity [4] | Activity [5] | Activity [7] | Activity [8] | Activity [9] | other results
22 | KWKLFKKIPKFLHLAKKF [compound 3290] | 1 |  | 1 | 1 | 1 | 
23 | ALWKTMLKKLGTMALHAGKAALGAAADTISQGTQ [compound 1708] | 1 |  | 1 | 1 | 1 | 
24 | SPWTKCSATCGGGHYMRTR [satpdb19979] | 1 |  | 1 | 1 | 1 | 
25 | LPRFSTMPFIYCNINEVCHY [satpdb13486] | 1 |  | 1 | 1 | 1 | 
26 | SVSNAATRVARTGRSRWRDVARNFMR [satpdb11117] | 0 | 0 |  |  |  | 
27 | ETFADWWKLLAE [compound 5061] | 1 |  | 1 | 1 | 1 | 
28 | KWCFCVCYRGICYCRCRG [satpdb12871] |  |  |  |  |  | Activity [6]: 0; Activity [2]: 0
29 | GIFSSRKCKTPSKTFKGYCTRDSNCDTSCRYEGYPAGD [satpdb10659] | 0 | 0 |  |  |  | 
30 | GGLKKLGKKLEGVGKRVFKASEKALPVLTGYKAIG [satpdb10158] | 0 | 0 |  |  |  | 
31 | ALWKTLLKKVLKA [satpdb10405] |  |  |  |  |  | Activity [12]: 0
32 | CLRIGMRGRELMGGIGKTM [satpdb12393] |  | 0 |  |  |  | Activity [6]: 0
33 | FLPIIAGIAAKFLPKIFCTISKKC [compound 4359] | 1 |  | 1 | 1 | 1 | 
34 | KWKEFLKEFKEAKKEVLHEALKAISE [satpdb14503] |  |  |  |  |  | Activity [1]: 0; Activity [2]: 0; Activity [3]: 0
35 | DGVKLCDVPSGTWSGHCGSSSKCSQQCKDREHFAYGGACHYQFPSVKCFCKRQC [2N2Q NMR - A 1-54] |  |  |  |  |  | Activity [11]: 0; Activity [3]: 0
36 | MTEEMLYAALLSFGLIFVGWGLGVLLLKIQGAEKE [4I7Z X-ray 2.80,F,1-35] |  |  |  |  | 0 | Activity [10]: 0
37 | GIGKFLHSAKKFGKAFVGEIMNSKKKKKKKKKK [satpdb13107] |  |  |  |  |  | Activity [6]: 0; Activity [2]: 0
38 | KMWSKILGHLIR [compound 3511] |  | 1 |  |  |  | Activity [12]: 1; Activity [10]: 1
39 | DLRFWNPREKLPLPTLPPFNPKPIYIDMGNRY [satpdb12945] |  |  |  |  |  | Activity [6]: 0; Activity [2]: 0
40 | HHPHGHHPHGHHPHGHHPHG [compound 4189] | 1 |  | 1 | 1 | 1 | 
41 | ARLKKCFNKVTGYCRKKCKVGERYEIGCLSGKLCCAN [satpdb10509] | 0 | 0 |  |  |  | 
42 | GLLGLLGSVVSHVVPAIVGHF [compound 4416] | 1 |  | 1 | 1 | 1 | 

Row | Substance | Activity [4] | Activity [5] | Activity [7] | Activity [8] | Activity [9] | other results
43 | LLKWLKK [satpdb13213] |  |  |  |  |  | Activity [1]: 0; Activity [2]: 0; Activity [3]: 0
44 | MEPECNLNCTD [satpdb10075] | 1 |  | 1 | 1 | 1 | 
45 | HFLLTKVNLAKKIL [satpdb11375] |  |  |  |  |  | Activity [12]: 0; Activity [2]: 0; Activity [3]: 0
46 | AWASFFKKAAHVGKHVGKAALTHYL [satpdb11738] |  | 0 |  |  |  | Activity [6]: 0
47 | GKWMSLLKHILK [compound 3649] |  | 1 |  |  |  | Activity [12]: 1; Activity [10]: 1
48 | ILRWPWWPWRRK [compound 1880] |  | 1 |  |  |  | Activity [12]: 1; Activity [10]: 1
49 | GIGKFLHSAKKFGKAFVGEIMNS [compound 1116] |  | 1 |  |  |  | Activity [12]: 1; Activity [10]: 1
50 | ITIPPIVKNTLKKFIKGAVSALMS [satpdb11263] | 0 | 0 |  |  |  | 
51 | MNQGKIWTVVPPAFGLPLMLGAVAITALLVHAAVLTHTTWYAAFLQGGVKKAA [1IJD X-ray 3.00 A/C/E 1-53] |  |  |  |  |  | Activity [11]: 0; Activity [3]: 0
52 | GLLSVLGSVAKHVLPHVVPVIAEHL [compound 4424] | 1 |  | 1 | 1 | 1 | 
53 | MKVRVDADACIGCGVCENLCPDVFQLGDDGKAKVLQPETDLPCAKDAADSCPTGAISVEE [1VJW X-ray 1.75 A 1-60] |  |  |  |  |  | Activity [11]: 0; Activity [3]: 0
54 | NKWKKILGKIIKVVK [compound 3497] |  | 1 |  |  |  | Activity [12]: 1; Activity [10]: 1
55 | FLKWLFKWAKK [compound 1716] |  |  | 1 | 1 |  | Activity [12]: 1
56 | TGASSEEEDPF [satpdb18128] | 1 |  | 1 | 1 | 1 | 
57 | KFPKFRRGIPFLFV [satpdb10093] | 0 | 0 |  |  |  | 
58 | INGSLDKRVQDCYHG [satpdb28376] | 1 |  | 1 | 1 | 1 | 
59 | GIGKLFLHAAKKFAKAFVAEKMNS [satpdb10222] | 0 | 0 |  |  |  | 
60 | GILGNIVGMGKQVVCGLSGLC [satpdb10178] | 0 | 0 |  |  |  | 
61 | SPWSSCSVTCGDGVITRIR [satpdb28070] | 1 |  | 1 | 1 | 1 | 
62 | GKWKSLLKHILK [compound 3653] |  | 1 |  |  |  | Activity [12]: 1; Activity [10]: 1
